Tests used:
endogenous TFE3 = assay: TFE3 nuclear translocation, immunocytochemistry high-content imaging; format: cell-based; conditions: PKIS2 primary screening
SH-SY5Y cells [1] = assay: AK (adenylate kinase) release ToxiLight cytotoxicity assay; conditions: PKIS2 primary screening; also: reference of the scale not given here
SH-SY5Y cells [2] = conditions: PKIS2 primary screening; for DQ Intensity: DQ Red BSA intensity; for DQ Spot: DQ Red BSA spot count
From the text: The PKIS2 Library was supplied by The Structural Genomics Consortium at the University of North Carolina at Chapel Hill.

SH-SY5Y cells [3] = assay: Nuclear count from microscopy images (cellular growth and toxicity); conditions: PKIS2 primary screening; also: reference of the scale not given here
SH-SY5Y cells [4] = assay: Chemotype enrichment analysis of PKIS2 primary screen hit categories; conditions: PKIS2 primary screening, hit category
endogenous TFEB = assay: TFEB nuclear translocation, immunocytochemistry high-content imaging; format: cell-based; conditions: PKIS2 primary screening
For DQ Intensity in this document: reference of the scale not given here.
For DQ Spot in this document: reference of the scale not given here.

Structure (SMILES) | TFE3 % (endogenous TFE3) | AK (SH-SY5Y cells [1]) | DQ Intensity (SH-SY5Y cells [2]) | DQ Spot (SH-SY5Y cells [2]) | Nuclear Count (SH-SY5Y cells [3]) | Outcome (SH-SY5Y cells [4]) | TFEB % (endogenous TFEB)
Fc1cc(Cl)ccc1Nc1ccnc2cc(-c3ccc(CN4CCOCC4)o3)ccc12 [UNC10225106A] | 18.79% | 77.69 | 127.02 | 67.74 | 98.32 | LYSO TOXIC | 10.01%
Cl.Cl.NC[C@H](Cc1ccc(C(F)(F)F)cc1)NC(=O)c1cc(Br)c(-c2ccnc3[nH]ccc23)s1 [UNC10225108A] | 23.22% | 105.44 | 147.21 | 85.33 | 144.66 | TFE3 | 5.26%
Nc1ncc(-c2ccc3nccc(-c4ccncc4)c3c2)cc1S(=O)(=O)N1CCCCC1 [UNC10225117A] | 4.68% | 150.20 | 254.18 | 83.51 | 82.78 | TOXIC | 3.14%
Nc1nccc2scc(-c3ccc4c(c3)CCN4C(=O)Cc3ccccc3)c12 [UNC10225119A] | 4.70% | 128.12 | 60.09 | 72.10 | 119.23 | LYSO TOXIC | 5.51%
Cl.c1ccc(Oc2ccc(Nc3ccnc4cc(-c5ccc(CN6CCNCC6)o5)ccc34)cc2)nc1 [UNC10225130B] | 38.53% | 101.15 | 87.94 | 55.20 | 88.02 | LYSO TOXIC | 17.19%
Cl.Cn1ccc(-c2cccc(Nc3ccnc4cc(-c5nccs5)ccc34)c2)n1 [UNC10225141A] | 26.05% | 174.83 | 161.91 | 66.27 | 43.03 | TOXIC | 12.07%
COc1cc2nccc(Nc3cccc(Oc4ccccc4)c3)c2cc1OC.Cl [UNC10225170A] | 29.93% | 71.46 | 93.52 | 79.85 | 91.34 | TFEB/TFE3 | 18.56%
Cl.Cl.NC(CNC(=O)c1cc(Br)c(-c2ccnc3[nH]ccc23)s1)c1ccccc1 (stereo not drawn) [UNC10225176A] | 37.70% | 110.45 | 298.60 | 72.64 | 58.33 | TFEB/3 + DQ Int | 17.27%
Cc1ccc(C(=O)Nc2ccc(Nc3ccnc4cc(-c5ccccn5)ccc34)cc2O)cc1.Cl [UNC10225182A] | 92.07% | 82.72 | 19.25 | 15.81 | 71.22 | LYSO TOXIC | 30.37%
Fc1cc(Cl)ccc1Nc1ccnc2cc(I)ccc12 [UNC10225189A] | 9.39% | 112.41 | 39.14 | 61.91 | 145.49 | LYSO TOXIC | 3.86%
c1ccc(Oc2ccc(Nc3ccnc4ccc(-c5ccccn5)cc34)cc2)cc1 [UNC10225215A] | 13.98% | 106.19 | 94.87 | 78.82 | 111.99 | LYSO TOXIC | 9.01%
CN1C(=O)C(Nc2ccccc2)=C(c2ccccc2)C1=O [UNC10225242A] | 13.56% | 287.85 | 102.22 | 99.91 | 117.96 | TOXIC | 6.14%
Cl.Cl.NC[C@H](CC1CCCCC1)NC(=O)c1cc(Br)c(-c2ccnc3[nH]ccc23)s1 [UNC10225276A] | 33.43% | 108.11 | 221.52 | 71.17 | 101.96 | TFEB/3 + DQ Int | 12.93%
Fc1cc(Cl)ccc1Nc1ccnc2cc(-c3ccc(CN4CCSCC4)o3)ccc12 [UNC10225290A] | 15.63% | 104.94 | 59.38 | 53.95 | 127.72 | LYSO TOXIC | 9.12%
Nc1nc(-c2cccnc2)c(-c2ccnc3ccccc23)s1 [UNC10225309A] | 14.98% | 67.30 | 115.27 | 134.42 | 71.32 | DQ and TFEB | 13.96%
